# How the values were obtained:
# [1] = Incubation with mouse intestinal microsomes (HPLC); assay type: in vitro ADME; conditions: incubation for 30 minutes
# From the text: The biopharmaceutical properties of the synthesized M13 (5-glutathione-6-shogaol) were characterized.
# NF-κB signaling pathway = experiment: NF-κB-dependent luciferase activity in NF-κB/293/GFP-Luc cells treated with TNF-α; assay type: cell-based; conditions: for RLU (% with TNFα): MLY compounds; for RLU (% with TNFα) / reduction of NF-κB activation: TNF-α 10 ng/ml, 18 hours; for Activity compared with M13: Table 2B; for reduction of NF-κB activation / RLU (% with TNF-α), range: 20 µM; for IC50: TNF-α stimulated, FIG. 9, read-out: dose to reduce the NF-κB activation by 50%; for RLU (% with TNF-α), range: Table 2B bins, 1080 min
# Experimental: First, the anti-inflammatory activity of MLY compounds on the NF-κB signaling pathway was examined using the NF-xB/293/GFP-LucTnl cell line (System Biosciences). This cell line is specifically designed for use in quantitatively monitoring (by luciferase intensity) transcriptional activation related to the NF-κB signal transduction pathway in vitro. Treatment of NF-κB/293/GFP-Luc™ cells with 10 ng/ml TNF-α for 18 hours induced strong activation of the NF-κB signal transduction pathway (FIGS. 8A and 8B). […] MLY2 and MLY8 induced a strongest 90% reduction of NF-κB activation the anti-inflammatory effect of MLY 2 and 8 was dose-related (FIG. 9). The dose to reduce the NF-κB activation by 50% was […] for M13, 5 μM for MLY2 and 11 μM for MLY8 (FIG. 9).
Compound,relative content retained of the input [1],RLU (% with TNFα) (NF-κB signaling pathway),Activity compared with M13 (NF-κB signaling pathway),reduction of NF-κB activation (NF-κB signaling pathway),IC50 (NF-κB signaling pathway),"RLU (% with TNF-α), range (NF-κB signaling pathway)"
"CCCCC/C=C/C(=O)CCc1ccc(O)c(OC)c1 [6-shogaol, reference compound]",61%,,,,,
"CCCCCC(CC(=O)CCc1ccc(O)c(OC)c1)SC[C@H](NC(=O)[C@@H](N)CCC(=O)O)C(=O)N[C@@H](C)C(=O)O (stereo partly drawn) [MLY-1, Glu(alpha)-Cys(6-shogaol)-Ala]",,30.3 ± 11.78%,>>M13 (15~35%),,,
"CCCCCC(CC(=O)CCc1ccc(O)c(OC)c1)SC[C@H](NC(=O)[C@@H](N)CCC(=O)O)C(=O)N[C@@H](CC(C)C)C(=O)O (stereo partly drawn) [MLY-2, Glu(alpha)-Cys(6-shogaol)-Leu]",,0.78 ± 0.54%,>>>>M13 (0~5%),90%,5 µM,
"CCCCCC(CC(=O)CCc1ccc(O)c(OC)c1)SC[C@H](NC(=O)[C@@H](N)CCC(=O)O)C(=O)N1CCC[C@H]1C(=O)O (stereo partly drawn) [MLY-3, Glu(alpha)-Cys(6-shogaol)-Pro]",,6.54 ± 8.56%,>M13 (35%~70%),,,
"CCCCCC(CC(=O)CCc1ccc(O)c(OC)c1)SC[C@H](NC(=O)[C@@H](N)CCC(=O)O)C(=O)N[C@@H](Cc1c[nH]c2ccccc12)C(=O)O (stereo partly drawn) [MLY-4, Glu(alpha)-Cys(6-shogaol)-Trp]",,80.65 ± 2.22%,= M13 (70%~85%),,,
"CCCCCC(CC(=O)CCc1ccc(O)c(OC)c1)SC[C@H](NC(=O)[C@@H](N)CCC(=O)O)C(=O)N[C@@H](Cc1ccc(O)cc1)C(=O)O (stereo partly drawn) [MLY-5, Glu(alpha)-Cys(6-shogaol)-Tyr]",,67.18 ± 3.27%,>M13 (35%~70%),,,
"CCCCCC(CC(=O)CCc1ccc(O)c(OC)c1)SC[C@H](NC(=O)[C@@H](N)CC(=O)O)C(=O)N[C@@H](Cc1ccccc1)C(=O)O (stereo partly drawn) [MLY-6, Asp(alpha)-Cys(6-shogaol)-Phe]",,50.7 ± 1.38%,>M13 (35%~70%),,,
"CCCCCC(CC(=O)CCc1ccc(O)c(OC)c1)SC[C@H](NC(=O)[C@@H](N)CC(=O)O)C(=O)N[C@@H](CC(C)C)C(=O)O (stereo partly drawn) [MLY-7, Asp(alpha)-Cys(6-shogaol)-Leu]",,38.6 ± 3.96%,>M13 (35%~70%),,,
"CCCCCC(CC(=O)CCc1ccc(O)c(OC)c1)SC[C@H](NC(=O)[C@@H](N)CC(=O)O)C(=O)N[C@@H](CCSC)C(=O)O (stereo partly drawn) [MLY-8, Asp(alpha)-Cys(6-shogaol)-Met]",,8.04 ± 4.06%,>>>M13 (5%~15%),90%,11 µM,
"CCCCCC(CC(=O)CCc1ccc(O)c(OC)c1)SC[C@H](NC(=O)[C@@H](N)CC(=O)O)C(=O)N1CCC[C@H]1C(=O)O (stereo partly drawn) [MLY-9, Asp(alpha)-Cys(6-shogaol)-Pro]",,92.85 ± 2.15%,<M13 (>90%),,,>90%
"CCCCCC(CC(=O)CCc1ccc(O)c(OC)c1)SC[C@H](NC(=O)[C@@H](N)CC(=O)O)C(=O)N[C@H](C(=O)O)C(C)C (stereo partly drawn) [MLY-10, Asp(alpha)-Cys(6-shogaol)-Val]",,66.68 ± 11.06%,>M13 (35%~70%),,,
"CCCCCC(CC(=O)CCc1ccc(O)c(OC)c1)SC[C@H](NC(=O)[C@@H](N)CC(=O)O)C(=O)N[C@@H](Cc1c[nH]c2ccccc12)C(=O)O (stereo partly drawn) [MLY-11, Asp(alpha)-Cys(6-shogaol)-Trp]",,24.75 ± 0.79%,>>M13 (15~35%),,,
"CCCCCC(CC(=O)CCc1ccc(O)c(OC)c1)SC[C@H](NC(=O)[C@@H](N)CC(=O)O)C(=O)N[C@@H](Cc1ccc(O)cc1)C(=O)O (stereo partly drawn) [MLY-12, Asp(alpha)-Cys(6-shogaol)-Tyr]",,47.43 ± 5.5%,>M13 (35%~70%),,,
"CCCCCC(CC(=O)CCc1ccc(O)c(OC)c1)SC[C@H](NC(=O)[C@@H](N)CCC(=O)O)C(=O)N[C@@H](CCSC)C(=O)O (stereo partly drawn) [MLY-13, Glu(alpha)-Cys(6-shogaol)-Met]",,60.22 ± 13.55%,>M13 (35%~70%),,,
"CCCCCC(CC(=O)CCc1ccc(O)c(OC)c1)SC[C@H](NC(=O)[C@@H](N)CC(=O)O)C(=O)N[C@H](C(=O)O)[C@@H](C)CC (stereo partly drawn) [MLY-14, Asp(alpha)-Cys(6-shogaol)-Ile]",,80.67 ± 11.28%,= M13 (70%~85%),,,
"CCCCCC(CC(=O)CCc1ccc(O)c(OC)c1)SC[C@H](NC(=O)[C@@H](N)CCC(=O)O)C(=O)N[C@@H](Cc1ccccc1)C(=O)O (stereo partly drawn) [MLY-15, Glu(alpha)-Cys(6-shogaol)-Phe]",,47.98 ± 9.35%,>M13 (35%~70%),,,
"CCCCCC(CC(=O)CCc1ccc(O)c(OC)c1)SC[C@H](NC(=O)[C@@H](N)CCC(=O)O)C(=O)N[C@H](C(=O)O)[C@@H](C)CC (stereo partly drawn) [MLY-16, Glu(alpha)-Cys(6-shogaol)-Ile]",,68.19 ± 4.46%,>M13 (35%~70%),,,
"CCCCCC(CC(=O)CCc1ccc(O)c(OC)c1)SC[C@H](NC(=O)[C@@H](N)CCC(=O)O)C(=O)N[C@H](C(=O)O)C(C)C (stereo partly drawn) [MLY-17, Glu(alpha)-Cys(6-shogaol)-Val]",,45.13 ±1.96%,>M13 (35%~70%),,,
"CCCCCC(CC(=O)CCc1ccc(O)c(OC)c1)SC[C@H](NC(=O)[C@@H](N)CC(=O)O)C(=O)NCC(=O)O (stereo partly drawn) [MLY-18, Asp(alpha)-Cys(6-shogaol)-Gly]",,112.31 ± 7.28%,<M13 (>90%),,,>90%
"CCCCCC(CC(=O)CCc1ccc(O)c(OC)c1)SC[C@H](NC(=O)[C@@H](N)CC(=O)O)C(=O)N[C@@H](C)C(=O)O (stereo partly drawn) [MLY-19, Asp(alpha)-Cys(6-shogaol)-Ala]",,67.04 ± 11.04%,>M13 (35%~70%),,,
